Assay results from PubChem BioAssay (NCI).
Several values for one entry are separate records, joined by “and”; a condition that tells them apart may be missing. Equal entries are not always repeated.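 Values below derive from 48-hour exposures of cells grown in 96-well plates, with endpoints linearly interpolated between the two concentrations bracketing the appropriate inhibition level. Here, GI50 denotes the concentration required for 50% inhibition of growth. At the TGI there is no net growth.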

Columns and labels:
Experiment in all cases: inhibition of tumour cell growth, NCI panel, 48 h
[1] = tested on: UACC-62 melanoma
[2] = tested on: A549 NSCLC
[3] = tested on: HOP-62 NSCLC
[4] = tested on: SNB-75 CNS
[5] = tested on: SW-620 colon
[6] = tested on: MDA-N
[7] = tested on: PC-3 prostate
[8] = tested on: HOP-92 NSCLC
[9] = tested on: LOX IMVI melanoma
[10] = tested on: XF 498 CNS

SMILES | TGI [1] | TGI [2] [µM] | TGI [3] | TGI [4] | TGI [5] | TGI [6] [µM] | TGI [7] [µM] | TGI [8] | TGI [9] | TGI [10] | GI50 [1] [µM] | GI50 [3] [µM] | GI50 [8] [µM] | GI50 [4] [µM] | GI50 [7] [µM] | GI50 [2] [µM] | GI50 [10] [µM] | GI50 [9] [µM] | GI50 [5] [µM]
c1ccc(CSC(SCc2ccccc2)c2cccc3ccccc23)cc1 | > 10 µM | > 10 | > 10 µM | > 10 µM | > 10 µM | > 10 | > 10 |  |  |  |  |  |  |  |  |  |  |  | 
c1ccc(/C(=N\Nc2nc3ccccc3[nH]2)c2ccccn2)cc1 | 6.23 µM | 22.1 | 2.12 µM | 3.85 µM | > 69.4 µM | 18.4 | 37.7 | 0.887 µM | 7.44 µM |  |  |  |  |  |  |  |  |  | 
N#CC1(CCCI)CCCC1 | 35.8 µM | > 100 |  | 20.2 µM | > 100 µM |  |  | 35 µM | 22.9 µM | 47.3 µM |  |  |  |  |  |  |  |  | 
O=C(O)c1cc2ccccc2c(N=Nc2ccc(S(=O)(=O)Nc3ccccn3)cc2)c1O | > 100 µM | > 100 | > 100 µM | > 100 µM | > 100 µM | > 100 | > 100 | > 100 µM |  |  |  |  |  |  |  |  |  |  | 
Cc1[nH]c(C(=O)Nc2ccc(C(=O)NCCN)cc2OC(C)C)c(Cl)c1Cl | 3.08 µM |  | 4.53 µM | 3.07 µM |  |  | 3.53 | 2.87 µM |  |  | 1.7 | 1.95 | 1.3 | 1.55 | 1.82 |  |  |  | 
Cc1csc2nc(-c3cccc([N+](=O)[O-])c3)c(/C=N/N=C(N)N)n12 | 2.8 µM | 3.34 |  | 3.16 µM | 2.98 µM | 3.04 | 3.08 | 1.37 µM |  |  |  |  |  |  |  |  |  |  | 
O=C1Nc2cccc(Cl)c2/C1=C\c1cccnc1 |  | 33.6 | 19.1 µM | 40.2 µM | 37.7 µM |  | > 100 | 68 µM | > 100 µM |  |  |  |  |  |  |  |  |  | 
C[n+]1c2ccccc2c(N=[N+]=[N-])c2ccccc21 | > 10 µM | > 10 | > 10 µM |  | > 10 µM |  | > 10 |  | 7.63 µM |  |  |  |  |  |  |  |  |  | 
CCCCCCCCCCCCc1ccc(S(=O)(=O)O)cc1.[Cu+2] | > 100 µM | > 100 | > 100 µM | > 100 µM | > 100 µM | > 100 | > 100 | > 100 µM | > 100 µM |  |  |  |  |  |  |  |  |  | 
CC[C@@]1(O)CC(OC2CC(N3CCOCC3)C(O)C(C)O2)c2c(O)c3c(c(O)c2[C@H]1O)C(=O)c1cccc(O)c1C3=O (stereo partly specified) | 0.428 µM and 0.301 µM | 0.6 | 0.597 µM and 0.427 µM | 0.93 µM and 0.399 µM | 5.93 µM and 9.38 µM | 1.04 | 0.811 | 0.383 µM and 0.871 µM | 0.886 µM and 0.437 µM | 0.278 µM and 0.362 µM | 0.0389 |  | 0.0725 | 0.0452 |  | 0.000605 | 0.0341 | 0.0207 | 0.121
O=C(CSCC(=O)N/N=C\c1ccc(F)cc1F)N/N=C\c1ccc(F)cc1F | > 100 µM | > 100 | > 100 µM | > 100 µM | > 100 µM |  |  | > 100 µM | > 100 µM |  |  |  |  |  |  |  |  |  | 
C[C@]12CC[C@H]3[C@@H](CC=C4C[C@@H](O)CC[C@@]43C)[C@@H]1C/C(=C\c1ccncc1)[C@@H]2O | 30.7 µM | 61.3 | > 100 µM | 62.8 µM | > 100 µM | 54.4 | 43 | 27.6 µM | 61 µM |  |  |  |  |  |  |  |  |  | 
N#Cc1c(-c2ccc([N+](=O)[O-])cc2)c2c([nH]c1=O)-c1ccccc1CCC2 | > 100 µM | > 100 | > 100 µM |  | > 100 µM | > 100 | > 100 | 48.4 µM | > 100 µM |  |  |  |  |  |  |  |  |  | 
CC(C)CCN(CCC(C)C)CC(=O)Nc1ccc(S(=O)(=O)c2ccc(NC(=O)CN(CCC(C)C)CCC(C)C)cc2)cc1 | 3.52 µM | 25.7 |  | 42 µM | 3.74 µM |  | 5.89 | 3.64 µM |  |  | 1.55 |  | 1.68 | 13.3 | 2.01 | 5.38 |  |  | 1.55
O=C1OC(c2ccc(O)cc2)(c2ccc(O)cc2)c2ccc(Cl)c3cccc1c23 (tested in a mixture with another compound) | 21.9 µM | > 75 | 16.2 µM |  | 33.4 µM | 25.7 | 20.6 | > 75 µM | 20.8 µM |  |  |  |  |  |  |  |  |  | 
COc1ccccc1C#C/C=C\C#Cc1ccccc1C#N | > 100 µM | > 100 | 62.5 µM | > 100 µM | 65.7 µM |  | > 100 | > 100 µM |  |  |  |  |  |  |  |  |  |  | 
C[N+]1(C(CO)Cc2c[nH]c3ccccc23)Cc2ccccc2C1 (stereo unspecified) | > 100 µM | > 100 | > 100 µM | > 100 µM | > 100 µM | > 100 | > 100 | > 100 µM | > 100 µM |  |  |  |  |  |  |  |  |  | 
Cc1ncc(C(=O)Nc2ccc(CN3CCN(C)CC3)c(C(F)(F)F)c2)cc1C#Cc1cnc(N)c2ccc(C#N)cc12 | 0.0717 µM |  |  |  |  |  |  | 0.0783 µM |  |  | < 0.0108 |  | 0.0165 |  |  |  |  |  | 
